Results reported in patent US20030216361A1, “Therapeutic compositions effective against gram positive bacteria” (priority 2000, published 2003).
“And” between values parts separate entries of the source, which are not always exact repeats. Equal entries are not always repeated.

Test system: ATCC 14154, mouse virulent Staphylococcus aureus
Assay: Mouse model of topical Gram positive (Staphylococcus aureus) infection, infected suture
Assay type: in vivo
Details: Group 5 enrofloxacin (Baytril) 10 mg/kg SQ SID×7 days, mice
Experimental: The model, as described in J. Gisby and J. Bryant, Antimicrobial Agents and Chemotherapy, February 2000, Vol. 44, No. 2, p 255-260, was used.
Fifty HSD:ICR male mice weighing 12-14 grams were ordered and allowed to acclimate 7 days. Mice were allocated to 5 groups of 10 animals each.
Group 1: infected suture placed, no treatment
Group 2: topical GRPB, 12.5 mg/kg BID×7 days
Group 3: topical GRPB, 25 mg/kg BID×7 days
Group 4: clean suture, no treatment
Group 5: enrofloxacin (Baytril) 10 mg/kg SQ SID×7 days
ATCC 14154, mouse virulent Staphylococcus aureus was grown in BHI broth overnight (12 hours) at 38 degrees C. Forty-five minutes prior to surgery, silk suture (2-0 size, 1 cm lengths w/swaged-on blunt needle) was soaked in the broth for 30 minutes, excess liquid was then removed by blotting with filter paper.
Mice were anesthetized with a ketamine (40 mg/kg), midazolam (2 mg/kg), and butorphanol (0.1 mg/kg) as a single IP injection.
The skin on the back of the mouse was prepared for aseptic surgery by clipping, cleansing with iodine scrub, and rinsing with alcohol. Mice were kept warm during surgery on a recirculating hot water blanket.
The suture was placed just under the skin on the dorsum of the animal using sterile instruments. The suture was knotted in the subcutaneous tissue to keep it in place. A half-thickness skin wound was made over the suture using the side of an 18 gauge needle as a scalpel.
Mice were allowed to recover in the home cage.
GRPB-10-15A was reconstituted as directed, using a minimal amount of methanol followed by dilution to required volume in sterile physiologic saline.
Injections were given using insulin syringes with 30 gauge needles. Topical administration was placed over the wound site. The mice were first treated 4 hours after surgery and were treated once or twice daily thereafter.
After 7 days of treatment animals were euthanized with IP pentobarbital euthanasia solution. The suture lengths were removed and placed in 2 mls phosphate buffered saline. Serial dilutions were performed and results reported as actual counts (number of Staph colonies per suture).

**Q.** CCN1CCN(c2cc3c(cc2F)c(=O)c(C(=O)O)cn3C2CC2)CC1 [Baytril, enrofloxacin, reference compound] was tested. Which “Total colonies (number of Staph colonies per suture), individual animals” value (animals 1-10, 10 mg/kg) did it give?
**A.** The value was 18 colonies per suture and 30 colonies per suture and 24 colonies per suture and 100 colonies per suture and 0 colonies per suture (2×) and 74 colonies per suture and 13 colonies per suture and 740 colonies per suture and 22 colonies per suture.

**Q.** And the “Total colonies (number of Staph colonies per suture), Ave.” value (average of 10 animals)?
**A.** The value was 102 colonies per suture.
